# Values of other authors in patent US9801891B2, “Compositions and methods for lowering intraocular pressure” (ALLERGAN, INC., priority 2009, dated 2017).
# Tested on: alpha-2 adrenoceptor
structure (smiles),measurement,value
"Brc1c(N=C2NCCN2)ccc2nccnc12.O=C(O)C(O)C(O)C(=O)O [Brimonidine tartrate, 5-bromo-6-(2-imidazolidinylideneamino) quinoxaline L-tartrate]",Selectivity for the alpha-2 adrenoceptor over the alpha-1 adrenoreceptor,1000 fold
